Measured values published in US20240374691A1, “GLP-1R AGONISTS FOR USE IN A TREATMENT OF NEUROLOGIAL IMPAIRMENT ASSOCIATED WITH VIRAL INFECTION” (Neuraly, Inc., priority 2021, published 2024).
Like-named read-outs stand apart in the source and are kept apart here.

Key:
[1] = in vivo; cited from earlier work
[2] = in vivo
primary microglia = assay: Pro-inflammatory cytokine production by primary microglia in vitro (ELISA); assay type: cell-based; conditions: NLY01 vs PBS
Method: Production of pro-inflammatory cytokines is a marker for microglial activation. Chronic microglial activation is pathogenic. […] Cytokine levels were determined using ELISA. Bars indicate mean±s.e.m. (n=3).

[3] = test system: Tg models of Alzheimer's Disease; assay: Tg models of Alzheimer's Disease (AD); assay type: in vivo
[4] = in vivo; remark: listed apart in the source
activated microglia = assay: Microglial activation in vivo after intrastriatal α-synuclein PFF injection; set-up: species or system C57BL6 mice; conditions: 3 mg/kg s.c. twice a week for 5 months, PFF-injected mice, FIGS. 2A-2B
Description: Mice were perfused and brain tissues collected to allow analysis of activated microglia and cytokine levels following treatment.

Substance	half-life [1]	half-life [2]	cytokine production by microglia (primary microglia; absence of activation)	pro-inflammatory cytokine levels (C1q, IL1α, TNF-α, IL1β) (primary microglia; activated microglia, FIGS. 1A-1D)	amyloid aggregation and tau formation [3]	memory impairment [3]	microglia activation and population of reactive astrocytes in the AD brain [3]	blood-brain barrier traversal [4]	Iba-1+ activated microglia in the brain (Iba-1 intensity, microglia density) (activated microglia)
Albiglutide: dipeptidyl peptidase-4-resistant glucagon-like peptide-1 dimer fused to human albumin	four to seven	–	–	–	–	–	–	–	–
NLY01: long-acting PEGylated form of exenatide; PEG 50,000 Da site-specifically conjugated to exenatide peptide	–	88 h	not significantly affected	substantially reduced	reduced	ameliorated	significantly inhibited	traverses the blood-brain barrier	reduced
